Where two headings read alike, the source gives them in different places.

Assay [1] deals with PKC delta kinase (Homo sapiens, UniProt Q05655). Briefly: PKC Delta coupled-enzyme kinase assay. The assay is classed as biochemical. Here is the method: An assay buffer solution was prepared which consisted of 100 mM HEPES (pH 7.5), 10 mM MgCl2, 25 mM NaCl, 0.1 mM EDTA and 0.01% Brij. […] To 16 μL of this enzyme buffer, in a 384 well plate, was added 1 μL of VRT stock solution in DMSO. The mixture was allowed to equilibrate for 10 mins at 30° C. […] Ki values were calculated from initial rate data by non-linear regression using the Prism software package (Prism 4.0a, Graphpad Software, San Diego, Calif.).

For assay [2], the target named is PKC alpha kinase (Homo sapiens, UniProt P17252). Briefly: PKC Alpha coupled-enzyme kinase assay. The assay is classed as biochemical. The settings on record: 4.5 nM PKC alpha, 130 μM ATP, 30° C. Here is the method: An assay buffer solution was prepared which consisted of 100 mM HEPES (pH 7.5), 10 mM MgCl2, 25 mM NaCl, 0.1 mM EDTA, 100 μM CaCl2 and 0.01% Brij. […] To 16 μL of this enzyme buffer, in a 384 well plate, was added 1 μL of VRT stock solution in DMSO. The mixture was allowed to equilibrate for 10 mins at 30° C. The enzyme reaction was initiated by the addition of 16 μL stock ATP solution prepared in assay buffer to a final assay concentration of 130 μM. Initial rate data was determined from the rate of change of absorbance at 340 nm (corresponding to stoichiometric consumption of NADH) using a Molecular Devices Spectramax plate reader (Sunnyvale, Calif.) over 15 mins at 30° C. For each Ki determination 12 data points covering the VRT concentration range of 0-20 μM were obtained in duplicate (DMSO stocks were prepared from an initial 10 mM VRT stock with subsequent 1:2 serial dilutions). Ki values were calculated from initial rate data by non-linear regression using the Prism software package (Prism 4.0a, Graphpad Software, San Diego, Calif.).

Where [3] appears, read: 46 nM PKC delta, 150 μM ATP, 30° C., read-out: Ki PKC delta.

PKC delta kinase, sequence (Q05655 whole entry): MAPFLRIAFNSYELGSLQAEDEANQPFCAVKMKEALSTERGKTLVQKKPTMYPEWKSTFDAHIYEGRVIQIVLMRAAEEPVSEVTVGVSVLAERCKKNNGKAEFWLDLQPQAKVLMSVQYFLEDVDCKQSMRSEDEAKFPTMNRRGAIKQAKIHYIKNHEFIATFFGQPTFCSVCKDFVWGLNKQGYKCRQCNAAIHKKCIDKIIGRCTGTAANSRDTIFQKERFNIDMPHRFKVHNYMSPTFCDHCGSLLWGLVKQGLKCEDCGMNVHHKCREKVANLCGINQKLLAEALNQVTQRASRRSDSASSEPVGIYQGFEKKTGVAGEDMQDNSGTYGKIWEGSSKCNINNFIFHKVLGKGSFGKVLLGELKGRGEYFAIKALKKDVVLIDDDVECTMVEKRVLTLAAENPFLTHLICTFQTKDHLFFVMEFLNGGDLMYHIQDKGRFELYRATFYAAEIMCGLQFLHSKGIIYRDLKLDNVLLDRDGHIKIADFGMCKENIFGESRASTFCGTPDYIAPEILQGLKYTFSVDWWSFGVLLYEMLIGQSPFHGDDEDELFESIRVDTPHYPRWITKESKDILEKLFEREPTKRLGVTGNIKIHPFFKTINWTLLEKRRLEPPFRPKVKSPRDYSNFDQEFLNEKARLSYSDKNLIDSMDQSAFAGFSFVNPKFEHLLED

For `Nc1ncccc1C(=O)c1cncc(N2CCC(N)CC2)n1` [compound 161], the Ki in assay [1] (setting [3]) and in assay [2] was 500 to 2800 nM in each case.

On to `CC(C)C[C@H]1CN(c2ccc(C3CC3)c(C(=O)c3cccnc3N)n2)CCN1` [compound 352], for which, in assay [2], the Ki lay in the range of 500 to 2800 nM.

For the compound `C=Cc1ccc(N2CCNCC2)nc1C(=O)c1cccnc1N` [compound 342], the Ki in assay [1] (setting [3]) lay in the range of 50 to 500 nM; in assay [2] it was 500 to 2800 nM.

As for `Nc1ncccc1C(=O)c1nccc(N2CCNCC2)n1` [compound 344], the Ki in assay [1] (setting [3]) and in assay [2] was over 2800 nM in each case.

As for `NCCSc1ccc(C(F)(F)F)c(C(=O)c2cccnc2N)n1` [compound 367], the Ki in assay [1] (setting [3]) and in assay [2] was 500 to 2800 nM throughout.

`Nc1ncccc1C(=O)c1nc(OCC(N)c2ccccc2)ccc1C(F)(F)F` (stereo not drawn) [compound 415] returned a Ki in assay [2] of under 50 nM.

Compound `C=Cc1cnc(N)c(C(=O)c2cccc(N3CCNCC3)n2)c1` [compound 202] registered a Ki in assay [2] of under 50 nM.

With `Nc1ncc(Br)cc1C(=O)c1nc(N2CCNCC2)ccc1C(F)(F)F` [compound 325], the Ki is 50 to 500 nM in assay [1] (setting [3]) and under 50 nM in assay [2].

For the compound `Nc1ncccc1C(=O)c1cccc(N2CCNC(CO)C2)n1` (stereo not drawn) [compound 303], the Ki in assay [1] (setting [3]) is 50 to 500 nM; in assay [2], 500 to 2800 nM.

Take `Cc1ccc(C2CN(c3cccc(C(=O)c4cccnc4N)n3)CCN2)cc1` (stereo not drawn) [compound 336]: the Ki in assay [1] (setting [3]) and in assay [2] was 500 to 2800 nM throughout.

As for `Cc1ccc(N2CCNCC2)nc1C(=O)c1cccnc1N` [compound 230], the Ki in assay [1] (setting [3]) and in assay [2] was 500 to 2800 nM in each case.

With `NCC1CCCN(c2cccc(C(=O)c3cccnc3N)n2)C1` (stereo not drawn) [compound 333], the Ki in assay [1] (setting [3]) and in assay [2] was over 2800 nM throughout.

On to `C=Cc1cnc(N)c(C(=O)c2cccc(N3CCNC(c4ccccc4)C3)n2)c1` (stereo not drawn) [compound 241], for which the Ki in assay [1] (setting [3]) is 50 to 500 nM; in assay [2], under 50 nM.

Consider `NCCCNc1ccc(C(F)(F)F)c(C(=O)c2cccnc2N)n1` [compound 372], for which the Ki in assay [1] (setting [3]) and in assay [2] was 500 to 2800 nM throughout.

As to `Nc1ncccc1C(=O)c1cncc(N2CCCNCC2)n1` [compound 157], the results for the Ki in assay [1] (setting [3]) and in assay [2] were 50 to 500 nM and 500 to 2800 nM, respectively.

`Nc1ncc(CCc2ccccc2)cc1C(=O)c1cccc(N2CCCNCC2)n1` [compound 187]: the Ki in assay [1] (setting [3]) is 50 to 500 nM; in assay [2], under 50 nM.

Take `Nc1ncccc1C(=O)c1nc(NCC2CCCNC2)ccc1C(F)(F)F` (stereo not drawn) [compound 387]: the Ki is 50 to 500 nM in assay [1] (setting [3]) and 500 to 2800 nM in assay [2].

`CC(=O)c1ccc(N2CCN[C@@H](CC(C)C)C2)nc1C(=O)c1cccnc1N` [compound 351]: the results for the Ki in assay [1] (setting [3]) and in assay [2] were 500 to 2800 nM and over 2800 nM, respectively.

For the compound `NCCNc1ccc(C(F)(F)F)c(C(=O)c2cccnc2N)n1` [compound 371], the Ki in assay [1] (setting [3]) and in assay [2] was 500 to 2800 nM each time.

In the case of `CCc1ccc(N2CCNC(c3ccccc3)C2)nc1C(=O)c1cccnc1N` (stereo not drawn) [compound 350], the results for the Ki in assay [1] (setting [3]) and in assay [2] were 50 to 500 nM and 500 to 2800 nM, respectively.

`Nc1ncc(Cc2ccccc2)cc1C(=O)c1cccc(N2CCCNCC2)n1` [compound 188]: the figures for the Ki in assay [1] (setting [3]) and in assay [2] were 50 to 500 nM and under 50 nM, respectively.

With `Nc1ncccc1C(=O)c1cccc(N2CCNC(c3ccc(Cl)cc3)C2)n1` (stereo not drawn) [compound 307], the Ki in assay [1] (setting [3]) and in assay [2] was 500 to 2800 nM in each case.

For `Nc1ncccc1C(=O)c1nc(N2CCNCC2)cnc1Cl` [compound 343], the Ki is 50 to 500 nM in assay [1] (setting [3]) and 500 to 2800 nM in assay [2].

Turning to `Nc1ncccc1C(=O)c1cccc(N2CCCN(C(=O)c3sccc3Cl)CC2)n1` [compound 92], the Ki in assay [1] (setting [3]) and in assay [2] was 500 to 2800 nM throughout.

In the case of `C=Cc1cnc(N)c(C(=O)c2nc(N3CCNC(c4ccccc4)C3)ccc2C(F)(F)F)c1` (stereo not drawn) [compound 328], the results for the Ki in assay [1] (setting [3]) and in assay [2] were 50 to 500 nM and under 50 nM, respectively.

Regarding `CC(C)C[C@H]1CN(c2ccc(CC(F)F)c(C(=O)c3cccnc3N)n2)CCN1` [compound 401], the Ki was in the range of 50 to 500 nM in assay [1] (setting [3]) and 500 to 2800 nM in assay [2].

As to `Nc1ncccc1C(=O)c1nc(NCC2CCCN2)ccc1C(F)(F)F` (stereo not drawn) [compound 379], the Ki in assay [1] (setting [3]) and in assay [2] was 500 to 2800 nM in each case.

On to `Nc1ncc(Br)cc1C(=O)c1cccc(N2CCNC(c3ccccc3)C2)n1` (stereo not drawn) [compound 240], for which the Ki in assay [1] (setting [3]) was 50 to 500 nM; in assay [2], under 50 nM.

`Nc1ncccc1C(=O)c1nc(NC[C@@H](N)c2ccccc2)ccc1C(F)(F)F` [compound 388]: the Ki in assay [2] is under 50 nM.

Turning to `CN1CCCN(c2csc(C(=O)c3cc(Br)cnc3N)n2)CC1` [compound 163], in assay [1] (setting [3]), the Ki is 50 to 500 nM.

As for `Cc1ccc(N2CCNC(c3ccccc3)C2)nc1C(=O)c1cccnc1N` (stereo not drawn) [compound 252], the Ki in assay [1] (setting [3]) is 50 to 500 nM.

Consider `CC(C)(C)CCN1CCCN(c2cccc(C(=O)c3cccnc3N)n2)CC1` [compound 44], for which the Ki in assay [1] (setting [3]) was over 2800 nM.

`Cc1cccc(C2CN(c3cccc(C(=O)c4cccnc4N)n3)CCN2)c1` (stereo not drawn) [compound 335]: the Ki in assay [1] (setting [3]) lay within 50 to 500 nM.

In assay [1], `CC1(C)CN(c2cccc(C(=O)c3cccnc3N)n2)CCN1` [compound 226] had a Ki of 50 to 500 nM.

On to `CC(C)C(=O)N1CCCN(c2cccc(C(=O)c3cccnc3N)n2)CC1` [compound 34], for which the Ki in assay [1] (setting [3]) is 500 to 2800 nM.

As for `Nc1ncccc1C(=O)c1nc(N2CCNCC2)ccc1Cl` [compound 315], in assay [1] (setting [3]), the Ki was in the range of 50 to 500 nM.

In the case of `COc1cccc(-c2cnc(N)c(C(=O)c3cccc(N4CCNC(c5ccccc5)C4)n3)c2)c1` (stereo not drawn) [compound 286], the Ki in assay [1] (setting [3]) was 50 to 500 nM.

As to `Nc1ncc(C2CC2)cc1C(=O)c1cccc(N2CCCNCC2)n1` [compound 154], the Ki in assay [1] (setting [3]) was 50 to 500 nM.

With `Nc1ncc(Br)cc1C(=O)c1nc(N2CCNCC2)ccc1Cl` [compound 329], the Ki in assay [1] (setting [3]) was 50 to 500 nM.

`C#Cc1cnc(N)c(C(=O)c2cccc(N3CCCNCC3)n2)c1` [compound 108] returned a Ki in assay [2] of under 50 nM.

Compound `CC(C)C[C@H]1CN(c2ccc(Cl)c(C(=O)c3cccnc3N)n2)CCN1` [compound 323] came in with a Ki in assay [2] of under 50 nM.

As to `Nc1ncccc1C(=O)c1nc(N2CCNC(c3ccccc3)C2)ccc1C(F)F` (stereo not drawn) [compound 404], the Ki in assay [1] (setting [3]) was 50 to 500 nM.

As for `Nc1ncc(-c2cccc(O)c2)cc1C(=O)c1cccc(N2CCNC(c3ccccc3)C2)n1` (stereo not drawn) [compound 260], the Ki in assay [1] (setting [3]) is 50 to 500 nM.

As for `Nc1ncc(-c2csc3ccccc23)cc1C(=O)c1cccc(N2CCCNCC2)n1` [compound 200], the Ki in assay [1] (setting [3]) was in the range of 50 to 500 nM.

In the case of `Nc1ncccc1C(=O)c1nc(N2CCCNCC2)ccc1C(F)(F)F` [compound 318], the Ki in assay [1] (setting [3]) was in the range of 50 to 500 nM.

With `Cc1sc(N2CCNC[C@H]2C)nc1C(=O)c1cccnc1N` [compound 247], the Ki in assay [1] (setting [3]) lay in the range of 500 to 2800 nM.

Compound `CC(C)(C)[C@H]1CN(c2cccc(C(=O)c3cccnc3N)n2)CCN1` [compound 225] returned a Ki in assay [1] of 50 to 500 nM.

Regarding `CC(C)C[C@H]1CN(c2ccc(OC(F)F)c(C(=O)c3cccnc3N)n2)CCN1` [compound 356], the Ki in assay [1] (setting [3]) lay within 50 to 500 nM.

In the case of `Nc1ncc(-c2cccs2)cc1C(=O)c1cccc(N2CCNC(c3ccccc3)C2)n1` (stereo not drawn) [compound 263], the Ki in assay [1] (setting [3]) was in the range of 50 to 500 nM.

For `COc1ccccc1C1CN(c2cccc(C(=O)c3cccnc3N)n2)CCN1` (stereo not drawn) [compound 296], the Ki in assay [1] (setting [3]) was 50 to 500 nM.

Consider `Nc1ncc(Br)cc1C(=O)c1cccc(N2CCCN(C(=O)c3ccccc3Cl)CC2)n1` [compound 151], for which, in assay [1] (setting [3]), the Ki fell in the range of 500 to 2800 nM.

Take `Nc1ccc(-c2cnc(N)c(C(=O)c3cccc(N4CCCNCC4)n3)c2)cc1` [compound 170]: in assay [1] (setting [3]), the Ki fell in the range of 50 to 500 nM.

In turn, `C=Cc1cnc(N)c(C(=O)c2nc(N3CCNCC3)ccc2Cl)c1` [compound 330] yielded a Ki in assay [2] of under 50 nM.

Consider `CCCc1ccc(N2CCN[C@@H](CC(C)C)C2)nc1C(=O)c1cccnc1N` [compound 385], for which the Ki in assay [2] lay in the range of 500 to 2800 nM.

Compound `C=Cc1cnc(N)c(C(=O)c2nc(N3CCNCC3)ccc2C(F)(F)F)c1` [compound 327] had a Ki in assay [2] of under 50 nM.

As for `Nc1ncc(-c2ccccc2)cc1C(=O)c1cccc(N2CCNCC2)n1` [compound 206], the Ki in assay [1] (setting [3]) lay within 50 to 500 nM.

As for `CC(C)C[C@H]1CN(c2ccc(Cc3ccccc3)c(C(=O)c3cccnc3N)n2)CCN1` [compound 418], the Ki in assay [2] was in the range of 500 to 2800 nM.

Consider `Nc1ncccc1C(=O)c1cccc(N2CCNC(c3ccc(F)cc3)C2)n1` (stereo not drawn) [compound 295], for which, in assay [1] (setting [3]), the Ki lay in the range of 50 to 500 nM.

For `CC(C)C[C@H](N)CNc1ccc(C(F)(F)F)c(C(=O)c2cccnc2N)n1` [compound 396], in assay [1] (setting [3]), the Ki lay in the range of 50 to 500 nM.

As to `CC#Cc1ccc(N2CCNCC2)nc1C(=O)c1cccnc1N` [compound 412], in assay [1] (setting [3]), the Ki was 50 to 500 nM.

In the case of `Nc1ncccc1C(=O)c1cccc(N2CCN3CCCC3C2)n1` (single isomer, unassigned) [compound 211], the Ki in assay [1] (setting [3]) lay within 50 to 500 nM.

With `Nc1ncccc1C(=O)c1cccc(N2CCCN(C(=O)CCC(F)(F)F)CC2)n1` [compound 31], the Ki in assay [1] (setting [3]) was in the range of 500 to 2800 nM.

The values are drawn from patent US20110077237A1, “KINASE INHIBITORS” (VERTEX PHARMACEUTICALS INCORPORATED, priority 2007, published 2011).
